Assay results reported in ChEMBL document CHEMBL1201862, “PubChem BioAssay data set” (2004).
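Method: 48-hour compound exposure of cells in 96-well plates, five concentrations, linear interpolation of endpoints. Abbreviation: GI50, concentration required for 50% inhibition of growth.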 Calls of active or inactive are those of the source. Rule as the data show it: active = GI50 up to about 1.1 µM and inactive = higher.

How the values were obtained:
Assay in all cases: DTP human tumour cell line panel, 48 h
[1] = system: OVCAR-3
[2] = system: DLD-1
[3] = system: SW-620
[4] = system: SK-MEL-28
[5] = system: SNB-19
[6] = system: HOP-92
[7] = system: SF-539
[8] = system: U-251
[9] = system: RXF 393
[10] = system: CCRF-CEM
[11] = system: SF-268
[12] = system: HOP-62
[13] = system: UO-31
[14] = system: DMS-114
[15] = system: RPMI-8226
[16] = system: SK-MEL-2
[17] = system: XF498
[18] = system: HT-29
[19] = system: MOLT-4
[20] = system: LXFL 529
[21] = system: IGROV-1
[22] = system: HL-60
[23] = system: SF-295
[24] = system: 786-0
[25] = system: A549
[26] = system: A498
[27] = system: HCC 2998
[28] = system: CAKI-1
[29] = system: Malme-3M
[30] = system: SN12C
[31] = system: COLO 205
[32] = system: TK-10
[33] = system: M19-MEL
[34] = system: SNB-78
[35] = system: EKVX
[36] = system: LOX IMVI
[37] = system: M14
[38] = system: UACC-257
[39] = system: SK-MEL-5
[40] = system: OVCAR-4
[41] = system: K562
[42] = system: OVCAR-8
[43] = system: SK-OV-3
[44] = system: SNB-75
[45] = system: ACHN
[46] = system: NCI-H23
[47] = system: KM-20L2
[48] = system: KM12
[49] = system: RXF 631
[50] = system: NCI-H522
[51] = system: NCI-H226
[52] = system: NCI-H460
[53] = system: OVCAR-5
[54] = system: HCT-15
[55] = system: HOP-18
[56] = system: SR
[57] = system: UACC-62
[58] = system: DMS-273
[59] = system: HCT-116

Which GI50 [1] does the source give for `COc1cccc(C2C(C(=O)Nc3cc(=O)n(C)c(=O)n3C)=C(C)NC(C)=C2C(=O)Nc2cc(=O)n(C)c(=O)n2C)c1O` here?
Its GI50 is > 100 µM (inactive).

And the GI50 [2]?
The GI50 was > 100 µM (inactive).

And the GI50 [3]?
The GI50 was > 100 µM (inactive).

What about the GI50 [4] of the same compound?
Its GI50 is > 100 µM (inactive).

And the GI50 [5]?
The GI50 was > 100 µM (inactive).

What about the GI50 [6] of the same compound?
The GI50 was > 100 µM (inactive).

And the GI50 [7]?
Its GI50 is > 100 µM (inactive).

And the GI50 [8]?
Its GI50 is > 100 µM (inactive).

What about the GI50 [9] of the same compound?
Its GI50 is > 100 µM (inactive).

And the GI50 [10]?
Its GI50 is 86.7 µM (inactive).

And the GI50 [11]?
Its GI50 is > 100 µM (inactive).

What about the GI50 [12] of the same compound?
Its GI50 is > 100 µM (inactive).

And the GI50 [13]?
Its GI50 is > 100 µM (inactive).

And the GI50 [14]?
The GI50 was > 100 µM (inactive).

What about the GI50 [15] of the same compound?
The GI50 was 66.1 µM (inactive).

What about the GI50 [16] of the same compound?
Its GI50 is > 100 µM (inactive).

What about the GI50 [17] of the same compound?
The GI50 was > 100 µM (inactive).

And the GI50 [18]?
The GI50 was > 100 µM (inactive).

What about the GI50 [19] of the same compound?
The GI50 was > 100 µM (inactive).

And the GI50 [20]?
The GI50 was > 100 µM (inactive).

And the GI50 [21]?
Its GI50 is > 100 µM (inactive).

What about the GI50 [22] of the same compound?
Its GI50 is > 100 µM (inactive).

And the GI50 [23]?
Its GI50 is > 100 µM (inactive).

What about the GI50 [24] of the same compound?
The GI50 was > 100 µM (inactive).

What about the GI50 [25] of the same compound?
Its GI50 is > 100 µM (inactive).

And the GI50 [26]?
The GI50 was > 100 µM (inactive).

What about the GI50 [27] of the same compound?
The GI50 was > 100 µM (inactive).

And the GI50 [28]?
The GI50 was > 100 µM (inactive).

What about the GI50 [29] of the same compound?
Its GI50 is > 100 µM (inactive).

And the GI50 [30]?
The GI50 was > 100 µM (inactive).

What about the GI50 [31] of the same compound?
The GI50 was > 100 µM (inactive).

What about the GI50 [32] of the same compound?
Its GI50 is > 100 µM (inactive).

And the GI50 [33]?
The GI50 was > 100 µM (inactive).

What about the GI50 [34] of the same compound?
The GI50 was > 100 µM (inactive).

And the GI50 [35]?
Its GI50 is > 100 µM (inactive).

And the GI50 [36]?
The GI50 was > 100 µM (inactive).

And the GI50 [37]?
The GI50 was > 100 µM (inactive).

What about the GI50 [38] of the same compound?
Its GI50 is > 100 µM (inactive).

And the GI50 [39]?
The GI50 was > 100 µM (inactive).

What about the GI50 [40] of the same compound?
Its GI50 is > 100 µM (inactive).

What about the GI50 [41] of the same compound?
Its GI50 is > 100 µM (inactive).

What about the GI50 [42] of the same compound?
The GI50 was > 100 µM (inactive).

What about the GI50 [43] of the same compound?
Its GI50 is > 100 µM (inactive).

What about the GI50 [44] of the same compound?
Its GI50 is 23.9 µM (inactive).

And the GI50 [45]?
Its GI50 is > 100 µM (inactive).

What about the GI50 [46] of the same compound?
The GI50 was > 100 µM (inactive).

And the GI50 [47]?
The GI50 was > 100 µM (inactive).

And the GI50 [48]?
Its GI50 is > 100 µM (inactive).

And the GI50 [49]?
Its GI50 is > 100 µM (inactive).

And the GI50 [50]?
The GI50 was > 100 µM (inactive).

What about the GI50 [51] of the same compound?
Its GI50 is > 100 µM (inactive).

And the GI50 [52]?
Its GI50 is > 100 µM (inactive).

What about the GI50 [53] of the same compound?
The GI50 was > 100 µM (inactive).

With `c1ccc([P+](Cc2csnn2)(c2ccccc2)c2ccccc2)cc1` as the compound, how does the GI50 [1] read?
The GI50 was > 100 µM (inactive).

What about the GI50 [2] of the same compound?
The GI50 was > 100 µM (inactive).

And the GI50 [3]?
Its GI50 is > 100 µM (inactive).

What about the GI50 [4] of the same compound?
The GI50 was > 100 µM (inactive).

And the GI50 [5]?
Its GI50 is > 100 µM (inactive).

What about the GI50 [6] of the same compound?
Its GI50 is 80 µM (inactive).

And the GI50 [7]?
The GI50 was > 100 µM (inactive).

And the GI50 [8]?
Its GI50 is > 100 µM (inactive).

And the GI50 [9]?
The GI50 was 84.1 µM (inactive).

And the GI50 [10]?
Its GI50 is > 100 µM (inactive).

What about the GI50 [11] of the same compound?
The GI50 was > 100 µM (inactive).

And the GI50 [12]?
Its GI50 is > 100 µM (inactive).

And the GI50 [13]?
Its GI50 is > 100 µM (inactive).

And the GI50 [54]?
The GI50 was over 100 µM.

And the GI50 [55]?
The GI50 was > 100 µM (inactive).

What about the GI50 [14] of the same compound?
The GI50 was 64 µM (inactive).

What about the GI50 [15] of the same compound?
The GI50 was > 100 µM (inactive).

What about the GI50 [16] of the same compound?
Its GI50 is > 100 µM (inactive).

And the GI50 [56]?
The GI50 was > 100 µM (inactive).

And the GI50 [17]?
The GI50 was > 100 µM (inactive).

What about the GI50 [18] of the same compound?
The GI50 was > 100 µM (inactive).

And the GI50 [19]?
The GI50 was > 100 µM (inactive).

And the GI50 [20]?
The GI50 was > 100 µM (inactive).

And the GI50 [57]?
Its GI50 is 57.8 µM (inactive).

What about the GI50 [21] of the same compound?
Its GI50 is > 100 µM (inactive).

And the GI50 [22]?
The GI50 was > 100 µM (inactive).

What about the GI50 [23] of the same compound?
Its GI50 is > 100 µM (inactive).

And the GI50 [25]?
The GI50 was > 100 µM (inactive).

And the GI50 [58]?
The GI50 was > 100 µM (inactive).

What about the GI50 [26] of the same compound?
The GI50 was > 100 µM (inactive).

And the GI50 [27]?
Its GI50 is > 100 µM (inactive).

What about the GI50 [28] of the same compound?
The GI50 was > 100 µM (inactive).

And the GI50 [29]?
Its GI50 is > 100 µM (inactive).

What about the GI50 [30] of the same compound?
The GI50 was > 100 µM (inactive).

And the GI50 [31]?
Its GI50 is > 100 µM (inactive).

What about the GI50 [32] of the same compound?
Its GI50 is > 100 µM (inactive).

And the GI50 [33]?
Its GI50 is > 100 µM (inactive).

And the GI50 [34]?
The GI50 was > 100 µM (inactive).

And the GI50 [35]?
The GI50 was > 100 µM (inactive).

And the GI50 [36]?
Its GI50 is > 100 µM (inactive).

What about the GI50 [37] of the same compound?
The GI50 was > 100 µM (inactive).

What about the GI50 [38] of the same compound?
The GI50 was > 100 µM (inactive).

What about the GI50 [39] of the same compound?
Its GI50 is > 100 µM (inactive).

What about the GI50 [40] of the same compound?
Its GI50 is > 100 µM (inactive).

What about the GI50 [42] of the same compound?
The GI50 was > 100 µM (inactive).

And the GI50 [43]?
The GI50 was > 100 µM (inactive).

And the GI50 [44]?
The GI50 was > 100 µM (inactive).

And the GI50 [45]?
Its GI50 is > 100 µM (inactive).

What about the GI50 [46] of the same compound?
The GI50 was > 100 µM (inactive).

What about the GI50 [47] of the same compound?
Its GI50 is > 100 µM (inactive).

And the GI50 [48]?
Its GI50 is > 100 µM (inactive).

And the GI50 [50]?
Its GI50 is > 100 µM (inactive).

What about the GI50 [51] of the same compound?
The GI50 was > 100 µM (inactive).

And the GI50 [59]?
Its GI50 is > 100 µM (inactive).

And the GI50 [52]?
Its GI50 is > 100 µM (inactive).

And the GI50 [53]?
Its GI50 is > 100 µM (inactive).
